# Measurements reported in PMC10913730, “Antimicrobial activity of a natural compound and analogs against multi-drug-resistant Gram-positive pathogens” (Microbiology Spectrum, 2024).
# Read-outs that look alike come from different tables or passages of the source.
# Assays:
# [1] = pH and Ka of 10-g/L aqueous solutions (pH meter); assay type: physicochemical; details: 10-g/L solution in distilled, deionized water; for pH of solution: room temperature
# MRSA isolates = test: MIC/MBC, CLSI broth microdilution, MRSA isolates; assay type: cell-based, Staphylococcus aureus; details: for change of MIC and MBC with the reduction in pH: six MRSA isolates, pH lowered to 5.5
# [2] = tested on: Staphylococcus epidermidis isolates; test: microbe, parasite or virus in culture; assay type: cell-based
# Enterococcus faecalis = test: MIC/MBC against Enterococcus faecalis; assay type: cell-based
# Streptococcus pyogenes = test: MIC/MBC against Streptococcus pyogenes; assay type: cell-based; details: for MBC: Streptococcus pyogenes
# Pseudomonas aeruginosa = test: MIC against Pseudomonas aeruginosa; assay type: cell-based
# [3] = tested on: MRSA isolates SA LL 06 and TCH 1516; test: Kill kinetics against stationary-phase MRSA; assay type: cell-based, Staphylococcus aureus; details: shaking, 37°C
# Procedure: MRSA isolates, TCH 1516 and SA LL 06, were grown to the stationary phase, and the rate of bacterial killing was determined. Frozen bacterial stocks were streaked onto TSA plates and grown overnight. A single colony was selected and incubated overnight in LB broth at 37°C with constant orbital shaking at 200 RPM. Next, bacterial suspension was washed twice with 150 mM sodium chloride and resuspended in MH broth at a concentration of 1.2E9 CFU/mL. […] Glass tubes containing 5 mL of bacteria and drug solutions were grown in a shaking incubator at 37°C. At 0, 4, 8, and 24 hours, bacterial suspensions were collected, serially diluted, and plated onto a blood agar plate. Bacteria were allowed to grow for 24 hours and were enumerated to yield colony-forming units per milliliter.
# [4] = tested on: MRSA isolate SAD05 biofilms; assay type: cell-based, Staphylococcus aureus; details: 72-hour biofilms of SAD05, MBEC assay
# MRSA isolate TCH 1516 [5] = test: Single-step resistance development; assay type: cell-based, Staphylococcus aureus; details: TCH 1516 stationary phase; C59 as low as 2× MIC, vancomycin up to 8× MIC
# Procedure: For the single-step study, bacteria were grown to the stationary phase as described above. Bacteria at a concentration of 1E9 CFU were then plated onto C59 and vancomycin-loaded plates containing 1×, 2×, 4×, and 8× MIC concentrations of the therapeutic agents with 1% DMSO. Bacteria were incubated at 37°C for 48 hours, and colony counts were enumerated to calculate the frequency of resistance development, as described in the literature ([45], [46]).
# MRSA isolate TCH 1516 [6] = test: Resistance acquisition during serial passage; assay type: cell-based, Staphylococcus aureus; details: serial passage, after 21 days
# Procedure: MRSA isolate TCH 1516 was grown to the stationary phase (OD650 = 1.0) in 10 mL of MH broth. […] The second highest drug concentration resulting in bacterial growth (OD650 >1.0) was used as the inoculum after a 1:1,000 dilution for subsequent steps, every 24 hours, for up to 21 days.
# [7] = tested on: human dermal fibroblast (HDF) cells; test: alamarBlue cell viability assay, HDF; details: HDFs, 24-hour incubation, non-linear regression
# [8] = tested on: human bronchial epithelial (16HBE) cells; test: alamarBlue cell viability assay, 16HBE; details: 24-hour incubation, non-linear regression
# [9] = tested on: erythrocytes (sheep blood); test: Hemolytic activity against sheep erythrocytes
# [10] = Aqueous solubility of compounds reconstituted at 10 mg/mL in water; details: 10 mg/mL in distilled deionized water
# [11] = Staphylococcus aureus, MRSA, pH 5.5, MRSA 0606, pH 5.5
# [12] = Staphylococcus aureus, MRSA, pH 5.5, MRSA 0608, pH 5.5
# [13] = Staphylococcus aureus, MRSA, pH 5.5, MRSA 0634, pH 5.5
# [14] = Staphylococcus aureus, MRSA, pH 5.5, MRSA 0641, pH 5.5
# [15] = Staphylococcus aureus, MRSA, pH 5.5, MRSA 0646, pH 5.5
# [16] = Staphylococcus aureus, MRSA, pH 5.5, TCH 1516, pH 5.5
# [17] = Staphylococcus aureus, MRSA, pH 6.5, MRSA 0606, pH 6.5
# [18] = Staphylococcus aureus, MRSA, pH 6.5, MRSA 0608, pH 6.5
# [19] = Staphylococcus aureus, MRSA, pH 6.5, MRSA 0634, pH 6.5
# [20] = Staphylococcus aureus, MRSA, pH 6.5, MRSA 0641, pH 6.5
# [21] = Staphylococcus aureus, MRSA, pH 6.5, MRSA 0646, pH 6.5
# [22] = Staphylococcus aureus, MRSA, pH 6.5, TCH 1516, pH 6.5
# [23] = Staphylococcus aureus, MRSA, pH 7.4, MRSA 0606, pH 7.4
# [24] = Staphylococcus aureus, MRSA, pH 7.4, MRSA 0608, pH 7.4
# [25] = Staphylococcus aureus, MRSA, pH 7.4, MRSA 0634, pH 7.4
# [26] = Staphylococcus aureus, MRSA, pH 7.4, MRSA 0641, pH 7.4
# [27] = Staphylococcus aureus, MRSA, pH 7.4, MRSA 0646, pH 7.4
# [28] = Staphylococcus aureus, MRSA, pH 7.4, TCH 1516, pH 7.4
# [29] = 21 Staphylococcus epidermidis isolates
# [30] = ATCC49532, Enterococcus faecalis (ATCC 49532)
# [31] = ATCC51575, Enterococcus faecalis (ATCC 51575)
# [32] = Streptococcus pyogenes (NR1575)
structure (smiles),measurement,setting,value
"Oc1c(Cl)cc(Cl)cc1-c1cc(Cl)cc(Cl)c1O [C59, 3,3′,5,5′-tetrachloro-[1,1′-biphenyl]−2,2′-diol]",acid dissociation constant (Ka),[1],6.18 × 10^−19
same,pH of solution,[1],9.86
same,MIC90,"MRSA isolates; Staphylococcus aureus, MRSA, 39 evaluated MRSA isolates, CLSI broth microdilution",2 µg/mL
same,MIC,"MRSA isolates; Staphylococcus aureus, MRSA, SA LL 06, as given for the kill kinetic assay",2 µg/mL
same,MIC,"MRSA isolates; Staphylococcus aureus, MRSA, TCH 1516, as given for the kill kinetic assay",2 µg/mL
same,MBC,MRSA isolates; [11],0.5 µg/mL
same,MIC,MRSA isolates; [11],0.5 µg/mL
same,MBC,MRSA isolates; [12],0.5 µg/mL
same,MIC,MRSA isolates; [12],0.5 µg/mL
same,MBC,MRSA isolates; [13],0.5 µg/mL
same,MIC,MRSA isolates; [13],0.5 µg/mL
same,MBC,MRSA isolates; [14],0.5 µg/mL
same,MIC,MRSA isolates; [14],0.5 µg/mL
same,MBC,MRSA isolates; [15],0.5 µg/mL
same,MIC,MRSA isolates; [15],0.5 µg/mL
same,MBC,MRSA isolates; [16],0.5 µg/mL
same,MIC,MRSA isolates; [16],0.5 µg/mL
same,MBC,"MRSA isolates; Staphylococcus aureus, MRSA, pH 5.5, read-out: Average MBC, average of six MRSA isolates, pH 5.5",0.5 µg/mL
same,MIC,"MRSA isolates; Staphylococcus aureus, MRSA, pH 5.5, read-out: Average MIC, average of six MRSA isolates, pH 5.5",0.5 µg/mL
same,MBC,MRSA isolates; [17],6 µg/mL
same,MIC,MRSA isolates; [17],1 µg/mL
same,MBC,MRSA isolates; [18],2 µg/mL
same,MIC,MRSA isolates; [18],2 µg/mL
same,MBC,MRSA isolates; [19],4 µg/mL
same,MIC,MRSA isolates; [19],1 µg/mL
same,MBC,MRSA isolates; [20],4 µg/mL
same,MIC,MRSA isolates; [20],1 µg/mL
same,MBC,MRSA isolates; [21],4 µg/mL
same,MIC,MRSA isolates; [21],1 µg/mL
same,MBC,MRSA isolates; [22],4 µg/mL
same,MIC,MRSA isolates; [22],1 µg/mL
same,MBC,"MRSA isolates; Staphylococcus aureus, MRSA, pH 6.5, read-out: Average MBC, average of six MRSA isolates, pH 6.5",4 µg/mL
same,MIC,"MRSA isolates; Staphylococcus aureus, MRSA, pH 6.5, read-out: Average MIC, average of six MRSA isolates, pH 6.5",1.2 µg/mL
same,MBC,MRSA isolates; [23],4 µg/mL
same,MIC,MRSA isolates; [23],2 µg/mL
same,MBC,MRSA isolates; [24],6 µg/mL
same,MIC,MRSA isolates; [24],2 µg/mL
same,MBC,MRSA isolates; [25],8 µg/mL
same,MIC,MRSA isolates; [25],2 µg/mL
same,MBC,MRSA isolates; [26],8 µg/mL
same,MIC,MRSA isolates; [26],2 µg/mL
same,MBC,MRSA isolates; [27],4 µg/mL
same,MIC,MRSA isolates; [27],2 µg/mL
same,MBC,MRSA isolates; [28],4 µg/mL
same,MIC,MRSA isolates; [28],2 µg/mL
same,MBC,"MRSA isolates; Staphylococcus aureus, MRSA, pH 7.4, read-out: Average MBC, average of six MRSA isolates, pH 7.4",5.7 µg/mL
same,MIC,"MRSA isolates; Staphylococcus aureus, MRSA, pH 7.4, read-out: Average MIC, average of six MRSA isolates, pH 7.4",2 µg/mL
same,MBC,"MRSA isolates; Staphylococcus aureus, MRSA, read-out: MBC90, 39 evaluated MRSA isolates, CLSI broth microdilution",6 µg/mL
same,change of MIC and MBC with the reduction in pH,MRSA isolates,decreased as much as fourfold
same,MBC range,[2]; [29],6 to 12 µg/mL
same,MIC range,[2]; [29],2 to 4 µg/mL
same,MIC90,[2]; Staphylococcus epidermidis,4 µg/mL
same,MBC,"[2]; Staphylococcus epidermidis, read-out: MBC90",12 µg/mL
same,MBC,Enterococcus faecalis; [30],16 µg/mL
same,MIC,Enterococcus faecalis; [30],8 µg/mL
same,MBC,Enterococcus faecalis; [31],16 µg/mL
same,MIC,Enterococcus faecalis; [31],8 µg/mL
same,MIC,"Streptococcus pyogenes; Streptococcus pyogenes (NR1571), read-out: MIC",6 µg/mL
same,MIC,Streptococcus pyogenes; [32],6 µg/mL
same,MBC,Streptococcus pyogenes; Streptococcus pyogenes (NR1571),24 µg/mL
same,MBC,Streptococcus pyogenes; [32],16 µg/mL
same,MIC,Pseudomonas aeruginosa; Pseudomonas aeruginosa (PAM57-15),> 32 µg/mL
same,MIC,Pseudomonas aeruginosa; Pseudomonas aeruginosa (PAO1),> 32 µg/mL
same,bacterial killing after 24 hours,"[3]; stationary-phase SA LL 06, C59 at 1× and 2× MIC",complete bacterial eradication
same,bacterial killing after 24 hours,[3]; stationary-phase TCH 1516,did not result in complete bacterial killing
same,concentration that completely eradicated biofilms,[4],16 µg/mL
same,growth on drug-loaded plates,MRSA isolate TCH 1516 [5],No growth
same,increase in MIC,MRSA isolate TCH 1516 [6],no change in MIC
same,LD50,[7],56.0 µg/mL
same,LD50,[8],40.2 µg/mL
same,concentrations at which erythrocytes were not lysed,"[9]; 1% sheep blood, 1-hour incubation",up to 24 µg/mL
same,LD50 relative to MIC90,"[9]; higher than MIC90, stated in the hemolysis discussion, cell type not named",24 fold
CC(=O)Oc1c(Cl)cc(Cl)cc1-c1cc(Cl)cc(Cl)c1OC(C)=O [C59Ac],acid dissociation constant (Ka),[1],2.45 × 10^−12
same,pH of solution,[1],6.61
same,MBC,"MRSA isolates; MRSA 0606, pH 7.4",8 µg/mL
same,MIC,"MRSA isolates; MRSA 0606, pH 7.4",4 µg/mL
same,MBC,"MRSA isolates; MRSA 0608, pH 7.4",12 µg/mL
same,MIC,"MRSA isolates; MRSA 0608, pH 7.4",4 µg/mL
same,MBC,"MRSA isolates; MRSA 0634, pH 7.4",4 µg/mL
same,MIC,"MRSA isolates; MRSA 0634, pH 7.4",4 µg/mL
same,MBC,"MRSA isolates; MRSA 0641, pH 7.4",12 µg/mL
same,MIC,"MRSA isolates; MRSA 0641, pH 7.4",4 µg/mL
same,MBC,"MRSA isolates; MRSA 0646, pH 7.4",8 µg/mL
same,MIC,"MRSA isolates; MRSA 0646, pH 7.4",4 µg/mL
same,MBC,"MRSA isolates; TCH 1516, pH 7.4",4 µg/mL
same,MIC,"MRSA isolates; TCH 1516, pH 7.4",4 µg/mL
same,change of MIC and MBC with the reduction in pH,MRSA isolates,remained unchanged
same,aqueous solubility,[10],moderate aqueous solubility
